Test results taken from patent publication US9540691B2, “Assays and methods for selecting a treatment regimen for a subject with depression” (THE GENERAL HOSPITAL CORPORATION, priority 2011, dated 2017).
Read-outs that look alike come from different tables or passages of the source.

System: patients with major depressive disorder (MDD) resistant to treatment with SSRIs
Source text: Using the sequential parallel design […] For those randomly assigned to the placebo/placebo sequence, both responders and non-responders to placebo during the first phase (n=25) remain on placebo during the second phase. […] Data from the previous double-blind, placebo-controlled study (Trial 1) can be pooled into the instant study (Trial 2) to provide a more accurate estimate of the placebo effect size, with a weighted average from the two Phases 1 (one from Trial 1 and one from Trial 2) and two Phases 2 (one from Trial 1 and one from Trial 2).
Once patients agree to participate in the study by signing the informed consent document, a full medical and psychiatric history is taken and a physical examination is performed. Screen rating scales are performed. […] The double-blind treatment lasts 60 days, during which patients are seen every 10 days (Visits 1 to 6 of Phase 1—See Table 4 below). Subjects are assigned randomization numbers in consecutive order. The randomization list is provided by a computer-generated random-number list and is maintained by the research pharmacist. In addition, the presence of any side effect or adverse event is carefully documented with the SAFTEE-SI [54]. Reasons for premature discontinuation, including intolerable side effects, are recorded.
All patients are asked to take one tablet of blinded study medication in the morning, in addition to their stable dose of ongoing SSRI treatment. […] Therefore, for patients randomly assigned to the placebo/placebo sequence, the tablets of study medication are placebo during both phases of the study.
The primary efficacy measure can include the change in 17-item Hamilton Rating Scale for Depression (HAM-D-17) score. […] A remission is, for example, defined as a HAM-D-17 score less than 8 at endpoint. Secondary measures of efficacy can include change in CGI-severity, with “clinical response defined” as CGI-S of 1 or 2 at endpoint. Patients with a CGI-I score greater than 5 at any post baseline visit or a 50 percent or greater worsening of depressive symptoms from baseline to that visit are discontinued from the study. Subjects are also discontinued from the study with any emergence of suicidality, homicidality, mania, or psychosis. Additional exemplary instruments that can be administered according to the study schedule include the following: • (1) Structured Clinical Interview for DSM-IV: The SCID-I/P, administered by the clinician, proceeds by modules to diagnose the different Axis I disorders. Questions are asked exactly as written, and each is based on the individual criteria from DSM-IV. Answers are generally rated on a scale of 1-3 (1=doubtful, 2=probable, 3=definite), and, based on the number of positive answers, a diagnosis is determined by a clinician. While the entire SCID-UP is administered at screen, the mood module is administered at each follow up visit. • (2) The MGH Antidepressant Treatment History Questionnaire (MGH-ATR): The MGH-ATR provides specific criteria for the adequate dose and adequate length of a trial for it to be considered a failure, thus allowing clinicians to systematically collect data aimed at assessing the degree of treatment-resistance of the current major depressive episode. • (3) The 28-item Hamilton Depression Scale (HAM-D-28): This version allows scoring of the HAM-D-17, 21-, 25-, and 28-item scales. This instrument is completed by the clinician by using a structured interview and defined anchor points, and aims to quantify the degree of depression over the past 7 days. The HAM-D is the most widely studied instrument for depression, and its reliability and validity are high. • (4) Clinical Global Impressions-Severity and Improvement (CGI-S, CGI-I): These two instruments are scored 1-7 by the clinician based on assessment of the patient's clinical status. They measure, based on history and scores on other instruments: a) Depressive severity (CGI-S) and b) Clinical Improvement (CGI-I). […] Safety Measurements […]

[1] = 15 mg/day adjunct to SSRI, Phase 1
[2] = 15 mg/day adjunct to SSRI, Phase 2 (Phase 1 completers/non-responders only)
[3] = 15 mg/day adjunct to SSRI, pooled Phases 1 and 2 (SPCD)

SMILES: CN1c2c(nc(N)[nH]c2=O)NC[C@@H]1CNc1ccc(C(=O)N[C@@H](CCC(=O)O)C(=O)O)cc1 [6(S)-5-MTHF, 6(S)-5-methyltetrahydrofolate]
- CGI-S Mean score reduction (SD) [1]: −1.3 (0.9)
- HDRS-17 % Remission [1]: 15.7% (3)
- HDRS-17 % Response [1]: 38.8% (7)
- HDRS-17 Mean score reduction (SD) [1]: −7.5 (5.0)
- QIDS-SR % Remission [1]: 21.0% (4)
- QIDS-SR % Responsive [1]: 36.8% (7)
- QIDS-SR Mean score reduction (SD) [1]: −8.1 (5.3)
- CGI-S Mean score reduction (SD) [2]: −0.5 (1.0)
- HDRS-17 % Remission [2]: 11.1% (2)
- HDRS-17 % Response [2]: 27.7% (5)
- HDRS-17 Mean score reduction (SD) [2]: −3.8 (6.2)
- QIDS-SR % Remission [2]: 8.5% (1)
- QIDS-SR % Responsive [2]: 11.1% (2)
- QIDS-SR Mean score reduction (SD) [2]: −1.3 (4.9)
- CGI-S Mean score reduction [3]: −0.92
- QIDS-SR % Remission [3]: 12.3%
- QIDS-SR % Responsive [3]: 23.9%
- QIDS-SR Mean score reduction [3]: −4.7
- response rate (50% or greater reduction in HAM-D-17) vs placebo group (in words) (SSRI + 15 mg/day, after 30 days, SPCD, FIG. 3A): higher
- reduction in scores of HAM-D-17, QIDS-SR and CGI-S vs placebo group (in words) (SSRI + 15 mg/day, after 30 days, SPCD, FIG. 3B): greater degree of reduction
- percentage of remitters (HAM-D-17 <8 or QIDS-SR ≦5) vs placebo (in words) (SSRI + 15 mg/day, after 30 days, FIGS. 3C-3D): no significant difference
